Target: human NLRP3 (Homo sapiens, UniProt Q96P20)
Test: Scintillation Proximity (SPA) NLRP3 Assay, displacement of 3H-MCC950
Format: binding
Conditions: Table B, activity class; displacement of 3H-MCC950 from human NLRP3
Protocol: Improved NLRP3 binding correlates with increased affinity for NLRP3 protein and, by extension, increased ability to interfere with its function.
SPA experiments were conducted in a total volume of 20 μL assay buffer containing 20 mM HEPES pH 7.5, 150 mM NaCl, 5 mM MgCl2, 0.01% (v/v) Tween-20, 0.01% (w/v) bovine serum albumin (BSA) and 100 μM of adenosine diphosphate (ADP). A human NLRP3 protein (350 nM) (see, e.g., Sharif et al., Nature (2019) 570:338-343; Hochheiser et al., Nature (2022) 604:184-189; Adreeva et al., Cell (2021) 184:6299-6312; Wang et al., J Exp. Med. (2021) 219:e20211147) was incubated with various concentration of compounds in 5% dimethyl sulfoxide (DMSO) final for 15 minutes at room temperature in a white half-area 96 well OptiPlate (PerkinElmer #6002290) before adding 125 nM final of 3H-MCC950. After the addition of radiolabeled MCC950, the plate was incubated for 60 minutes at room temperature before adding 0.25 mg/ml of copper-coated polyvinyltoluene SPA beads (PerkinElmer #RPNQ0095). The plate was then transferred to a microplate counter (PerkinElmer 2450 Microbeta) to collect binding data. Binding data was analyzed 6 hrs post-PVT bead addition to allow sufficient time to reach equilibrium. Specific binding was calculated from averaged duplicates by subtracting signal from wells without NLRP3 protein.
SPA NLRP3 IC50 assay results are provided in Table B. “A” activity=<1 uM; “B” activity=1-10 uM; “C” activity=>10-50 uM; “D” activity=>50 uM-100 uM; and “E” activity=>100 uM.

Sequence of human NLRP3 (Q96P20 whole entry): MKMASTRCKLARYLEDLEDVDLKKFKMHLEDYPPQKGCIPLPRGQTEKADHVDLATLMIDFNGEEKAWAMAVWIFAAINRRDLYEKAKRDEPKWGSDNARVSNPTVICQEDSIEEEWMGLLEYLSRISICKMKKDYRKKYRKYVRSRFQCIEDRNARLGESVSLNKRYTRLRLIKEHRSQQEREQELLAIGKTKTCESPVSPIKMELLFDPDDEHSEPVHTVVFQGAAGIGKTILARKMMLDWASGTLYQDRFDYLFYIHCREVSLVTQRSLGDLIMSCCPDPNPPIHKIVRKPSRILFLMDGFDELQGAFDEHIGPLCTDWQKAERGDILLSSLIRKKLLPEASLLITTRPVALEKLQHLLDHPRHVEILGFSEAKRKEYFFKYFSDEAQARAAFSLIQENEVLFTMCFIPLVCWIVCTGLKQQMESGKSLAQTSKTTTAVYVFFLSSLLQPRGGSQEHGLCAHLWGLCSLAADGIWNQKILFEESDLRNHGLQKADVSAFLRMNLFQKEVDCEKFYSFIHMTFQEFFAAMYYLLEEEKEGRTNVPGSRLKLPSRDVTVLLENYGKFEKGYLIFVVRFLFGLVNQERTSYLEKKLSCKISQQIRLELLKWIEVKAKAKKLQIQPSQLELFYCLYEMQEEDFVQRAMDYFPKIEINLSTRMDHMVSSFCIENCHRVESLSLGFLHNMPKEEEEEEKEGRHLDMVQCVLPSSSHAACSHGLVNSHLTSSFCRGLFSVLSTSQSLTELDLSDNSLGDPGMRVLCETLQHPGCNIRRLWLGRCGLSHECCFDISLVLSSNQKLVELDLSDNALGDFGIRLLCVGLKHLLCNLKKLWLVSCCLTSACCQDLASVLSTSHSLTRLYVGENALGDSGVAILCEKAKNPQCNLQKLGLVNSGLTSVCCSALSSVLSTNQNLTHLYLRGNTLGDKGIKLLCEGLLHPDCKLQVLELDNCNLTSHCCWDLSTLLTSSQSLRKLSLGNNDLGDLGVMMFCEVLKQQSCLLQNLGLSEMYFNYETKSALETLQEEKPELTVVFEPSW

| SMILES | IC50 [µM] |
| --- | --- |
| C[C@@H]1CCN(c2nnn[nH]2)C[C@@H](NC(=O)N(C)c2ccc(Cl)cc2)C1 (single isomer, unassigned) [4B*] | 1 to 10 |
| C[C@H]1CCN(c2nnn[nH]2)C[C@H](NC(=O)N(C)c2ccc(Cl)cc2)C1 (single isomer, unassigned) [4C*] | 50 to 100 |
| CC1CCN(c2nnn[nH]2)CC(NC(=O)N(C)c2ccc(Cl)cc2)C1 (single isomer, unassigned) [4D*] | 1 to 10 |
| C[C@@H]1CCN(c2nnn[nH]2)C[C@@H](NC(=O)N(C)c2ccc(Cl)cc2F)C1 (single isomer, unassigned) [5B*] | 1 to 10 |
| C[C@H]1CCN(c2nnn[nH]2)C[C@H](NC(=O)N(C)c2ccc(Cl)cc2F)C1 (single isomer, unassigned) [5C*] | 50 to 100 |
| C[C@H]1CCN(c2nnn[nH]2)C[C@@H](NC(=O)N(C)c2ccc(Cl)cc2F)C1 (single isomer, unassigned) [5D*] | 1 to 10 |
| C[C@@H]1CCN(c2nnn[nH]2)C[C@@H](NC(=O)N(C)c2ccc(Cl)cc2Cl)C1 (single isomer, unassigned) [7B*] | 1 to 10 |
| C[C@H]1CCN(c2nnn[nH]2)C[C@H](NC(=O)N(C)c2ccc(Cl)cc2Cl)C1 (single isomer, unassigned) [7C*] | 50 to 100 |
| C[C@H]1CCN(c2nnn[nH]2)C[C@@H](NC(=O)N(C)c2ccc(Cl)cc2Cl)C1 (single isomer, unassigned) [7D*] | 10 to 50 |
| C[C@@H]1CCN(c2nnn[nH]2)C[C@@H](NC(=O)N(C)c2ccc(C3CC3)cc2)C1 (single isomer, unassigned) [8B*] | 1 to 10 |
| C[C@H]1CCN(c2nnn[nH]2)C[C@H](NC(=O)N(C)c2ccc(C3CC3)cc2)C1 (single isomer, unassigned) [8C*] | > 100 |
| C[C@H]1CCN(c2nnn[nH]2)C[C@@H](NC(=O)N(C)c2ccc(C3CC3)cc2)C1 (single isomer, unassigned) [8D*] | 1 to 10 |
| C[C@@H]1CCN(c2nnn[nH]2)C[C@@H](NC(=O)N(C)c2ccc(C(F)(F)F)c(F)c2)C1 (single isomer, unassigned) [9B*] | 1 to 10 |
| C[C@H]1CCN(c2nnn[nH]2)C[C@H](NC(=O)N(C)c2ccc(C(F)(F)F)c(F)c2)C1 (single isomer, unassigned) [9C*] | > 100 |
| C[C@@H]1CCN(c2nnn[nH]2)C[C@@H](NC(=O)N(C)c2ccc(OC(F)(F)F)cc2)C1 (single isomer, unassigned) [10B*] | 1 to 10 |
| C[C@H]1CCN(c2nnn[nH]2)C[C@H](NC(=O)N(C)c2ccc(OC(F)(F)F)cc2)C1 (single isomer, unassigned) [10C*] | > 100 |
| C[C@H]1CCN(c2nnn[nH]2)C[C@@H](NC(=O)N(C)c2ccc(OC(F)(F)F)cc2)C1 (single isomer, unassigned) [10D*] | 1 to 10 |
| C[C@@H]1CCN(c2nnn[nH]2)C[C@@H](NC(=O)N(C)c2ccc(OC(F)F)cc2)C1 (single isomer, unassigned) [11B*] | 1 to 10 |
| C[C@H]1CCN(c2nnn[nH]2)C[C@H](NC(=O)N(C)c2ccc(OC(F)F)cc2)C1 (single isomer, unassigned) [11C*] | 50 to 100 |
| C[C@H]1CCN(c2nnn[nH]2)C[C@@H](NC(=O)N(C)c2ccc(OC(F)F)cc2)C1 (single isomer, unassigned) [11D*] | 1 to 10 |
| C[C@@H]1CCN(c2nnn[nH]2)C[C@@H](NC(=O)N(C)c2ccc(Cl)c(F)c2)C1 (single isomer, unassigned) [12B*] | 1 to 10 |
| C[C@H]1CCN(c2nnn[nH]2)C[C@H](NC(=O)N(C)c2ccc(Cl)c(F)c2)C1 (single isomer, unassigned) [12C*] | 10 to 50 |
| C[C@H]1CCN(c2nnn[nH]2)C[C@@H](NC(=O)N(C)c2ccc(Cl)c(F)c2)C1 (single isomer, unassigned) [12D*] | > 100 |
| C[C@@H]1CCN(c2nnn[nH]2)C[C@@H](NC(=O)N(C)c2ccc(C(F)(F)F)cc2F)C1 (single isomer, unassigned) [13B*] | 1 to 10 |
| C[C@H]1CCN(c2nnn[nH]2)C[C@H](NC(=O)N(C)c2ccc(C(F)(F)F)cc2F)C1 (single isomer, unassigned) [13C*] | > 100 |
| C[C@H]1CCN(c2nnn[nH]2)C[C@@H](NC(=O)N(C)c2ccc(C(F)(F)F)cc2F)C1 (single isomer, unassigned) [13D*] | 1 to 10 |
| C[C@@H]1CCN(c2nnn[nH]2)C[C@@H](NC(=O)N(C)c2ccc(OC(F)(F)F)c(F)c2)C1 (single isomer, unassigned) [14B*] | 1 to 10 |

| SMILES | IC50 [µM] |
| --- | --- |
| C[C@H]1CCN(c2nnn[nH]2)C[C@H](NC(=O)N(C)c2ccc(OC(F)(F)F)c(F)c2)C1 (single isomer, unassigned) [14C*] | > 100 |
| C[C@H]1CCN(c2nnn[nH]2)C[C@@H](NC(=O)N(C)c2ccc(OC(F)(F)F)c(F)c2)C1 (single isomer, unassigned) [14D*] | 10 to 50 |
| C[C@@H]1CCN(c2nnn[nH]2)C[C@@H](NC(=O)N(C)c2ccc(OC(F)F)c(F)c2)C1 (single isomer, unassigned) [15B*] | 1 to 10 |
| C[C@H]1CCN(c2nnn[nH]2)C[C@H](NC(=O)N(C)c2ccc(OC(F)F)c(F)c2)C1 (single isomer, unassigned) [15C*] | > 100 |
| C[C@H]1CCN(c2nnn[nH]2)C[C@@H](NC(=O)N(C)c2ccc(OC(F)F)c(F)c2)C1 (single isomer, unassigned) [15D*] | 1 to 10 |
| C[C@@H]1CCN(c2nnn[nH]2)C[C@@H](NC(=O)N(C)c2ccc(OC(F)F)c(OC(F)F)c2)C1 (single isomer, unassigned) [16B*] | 1 to 10 |
| C[C@H]1CCN(c2nnn[nH]2)C[C@H](NC(=O)N(C)c2ccc(OC(F)F)c(OC(F)F)c2)C1 (single isomer, unassigned) [16C*] | 50 to 100 |
| C[C@H]1CCN(c2nnn[nH]2)C[C@@H](NC(=O)N(C)c2ccc(OC(F)F)c(OC(F)F)c2)C1 (single isomer, unassigned) [16D*] | 1 to 10 |
| C[C@@H]1CCN(c2nnn[nH]2)C[C@@H](NC(=O)N(C)c2ccc(OC(F)F)cc2F)C1 (single isomer, unassigned) [17B*] | 1 to 10 |
| C[C@H]1CCN(c2nnn[nH]2)C[C@H](NC(=O)N(C)c2ccc(OC(F)F)cc2F)C1 (single isomer, unassigned) [17C*] | 1 to 10 |
| C[C@H]1CCN(c2nnn[nH]2)C[C@@H](NC(=O)N(C)c2ccc(OC(F)F)cc2F)C1 (single isomer, unassigned) [17D*] | > 100 |
| C[C@@H]1CCN(c2nnn[nH]2)C[C@@H](NC(=O)N(C)c2ccc(C(F)F)cc2F)C1 (single isomer, unassigned) [18B*] | 1 to 10 |
| C[C@H]1CCN(c2nnn[nH]2)C[C@H](NC(=O)N(C)c2ccc(C(F)F)cc2F)C1 (single isomer, unassigned) [18C*] | 10 to 50 |
| C[C@H]1CCN(c2nnn[nH]2)C[C@@H](NC(=O)N(C)c2ccc(C(F)F)cc2F)C1 (single isomer, unassigned) [18D*] | 10 to 50 |
| C[C@@H]1CCN(c2nnn[nH]2)C[C@@H](NC(=O)N(C)c2c(F)cc(OC(F)F)cc2F)C1 (single isomer, unassigned) [19B*] | 1 to 10 |
| C[C@H]1CCN(c2nnn[nH]2)C[C@H](NC(=O)N(C)c2c(F)cc(OC(F)F)cc2F)C1 (single isomer, unassigned) [19C*] | > 100 |
| C[C@H]1CCN(c2nnn[nH]2)C[C@@H](NC(=O)N(C)c2c(F)cc(OC(F)F)cc2F)C1 (single isomer, unassigned) [19D*] | 1 to 10 |
| C[C@@H]1CCN(c2nnn[nH]2)C[C@@H](NC(=O)N(C)c2c(F)cc(C3CC3)cc2F)C1 (single isomer, unassigned) [20B*] | 1 to 10 |
| C[C@H]1CCN(c2nnn[nH]2)C[C@H](NC(=O)N(C)c2c(F)cc(C3CC3)cc2F)C1 (single isomer, unassigned) [20C*] | 10 to 50 |
| C[C@H]1CCN(c2nnn[nH]2)C[C@@H](NC(=O)N(C)c2c(F)cc(C3CC3)cc2F)C1 (single isomer, unassigned) [20D*] | 1 to 10 |
| C[C@@H]1CCN(c2nnn[nH]2)C[C@@H](NC(=O)N(C)c2ccc(C(F)(F)F)c(F)c2F)C1 (single isomer, unassigned) [21B*] | 1 to 10 |
| C[C@H]1CCN(c2nnn[nH]2)C[C@H](NC(=O)N(C)c2ccc(C(F)(F)F)c(F)c2F)C1 (single isomer, unassigned) [21C*] | > 100 |
| C[C@H]1CCN(c2nnn[nH]2)C[C@@H](NC(=O)N(C)c2ccc(C(F)(F)F)c(F)c2F)C1 (single isomer, unassigned) [21D*] | 1 to 10 |
| C[C@@H]1CCN(c2nnn[nH]2)C[C@@H](NC(=O)N(C)c2ccc(C(F)F)c(F)c2)C1 (single isomer, unassigned) [22B*] | 1 to 10 |
| C[C@H]1CCN(c2nnn[nH]2)C[C@H](NC(=O)N(C)c2ccc(C(F)F)c(F)c2)C1 (single isomer, unassigned) [22C*] | 10 to 50 |
| C[C@H]1CCN(c2nnn[nH]2)C[C@@H](NC(=O)N(C)c2ccc(C(F)F)c(F)c2)C1 (single isomer, unassigned) [22D*] | 1 to 10 |
